PubChem BioAssay (NCI)
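Exposure lasted 48 hours, with cells grown in 96-well plates and compounds tested at five concentrations. GI50 is the concentration that inhibits growth by half. Definition used: TGI = concentration required for complete inhibition of growth.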

Experiments:
Assay in all cases: growth of human tumour cells (NCI), 48 h
[1] = test system: CAKI-1 renal
[2] = test system: HT29 colon
[3] = test system: SF-295 CNS
[4] = test system: NCI/ADR-RES ovarian
[5] = test system: HCC-2998 colon
[6] = test system: A498 renal
[7] = test system: UACC-62 melanoma
[8] = test system: OVCAR-4 ovarian
[9] = test system: HCT-15 colon
[10] = test system: OVCAR-8 ovarian
[11] = test system: HCT-116 colon
[12] = test system: TK-10 renal
[13] = test system: SK-MEL-2 melanoma
[14] = test system: MCF7 breast
[15] = test system: MALME-3M melanoma
[16] = test system: HS 578T breast
[17] = test system: A549 NSCLC
[18] = test system: SR leukemia
[19] = test system: SK-MEL-28 melanoma
[20] = test system: BT-549 breast
[21] = test system: HOP-92 NSCLC
[22] = test system: SW-620 colon
[23] = test system: SN12C renal
[24] = test system: UO-31 renal
[25] = test system: MDA-MB-231 breast
[26] = test system: KM12 colon
[27] = test system: PC-3 prostate
[28] = test system: OVCAR-5 ovarian
[29] = test system: SK-OV-3 ovarian
[30] = test system: T-47D breast
[31] = test system: MOLT-4 leukemia
[32] = test system: IGROV1 ovarian
[33] = test system: NCI-H226 lung
[34] = test system: COLO 205 colon
[35] = test system: SK-MEL-5 melanoma
[36] = test system: RXF 393 renal
[37] = test system: SF-539 CNS
[38] = test system: EKVX NSCLC
[39] = test system: SNB-75 CNS
[40] = test system: NCI-H460 lung
[41] = test system: M14 melanoma
[42] = test system: ACHN renal
[43] = test system: HOP-62 NSCLC
[44] = test system: HL-60(TB) leukemia
[45] = test system: 786-0 renal
[46] = test system: SF-268 CNS
[47] = test system: NCI-H522 lung
[48] = test system: K-562 leukemia
[49] = test system: U251 CNS
[50] = test system: MDA-MB-435
[51] = test system: LOX IMVI melanoma
[52] = test system: UACC-257 melanoma
[53] = test system: DU-145 prostate
[54] = test system: SNB-19 CNS
[55] = test system: OVCAR-3 ovarian
[56] = test system: RPMI-8226 leukemia
[57] = test system: CCRF-CEM leukemia
[58] = test system: NCI-H23 lung

Cc1cc2nc3c4cc(Cl)ccc4n(CC(=O)NCCN(C)C)c3nc2cc1C gave a GI50 [1] of 3.46 µM, a TGI [1] of 18.1 µM and a GI50 [2] of 1.67 µM. The TGI [2] was 3.18 µM, the GI50 [3] was 16.4 µM and the TGI [3] was 29.9 µM. It also gave a GI50 [4] of 5.64 µM, a TGI [4] of 18.5 µM and a GI50 [5] of 11.7 µM. It also gave a TGI [5] of 23.9 µM, a GI50 [6] of 18 µM and a TGI [6] of 31.8 µM. It also gave a GI50 [7] of 2.14 µM, a TGI [7] of 5.26 µM and a GI50 [8] of 15.9 µM. The TGI [8] was 39.2 µM, the GI50 [9] was 1.86 µM and the TGI [9] was 4.01 µM. It also gave a GI50 [10] of 1.91 µM, a TGI [10] of 3.87 µM and a GI50 [11] of 1.73 µM. The TGI [11] was 3.29 µM, the GI50 [12] was 19.7 µM and the TGI [12] was 33.9 µM. The GI50 [13] was 16 µM, the TGI [13] was 29.8 µM and the GI50 [14] was 1.48 µM. It also gave a TGI [14] of 3.15 µM, a GI50 [15] of 1.69 µM and a TGI [15] of 3.2 µM. For the same molecule, the GI50 [16] was 13.5 µM, the TGI [16] was 35.5 µM and the GI50 [17] was 2.02 µM. For the same molecule, the TGI [17] was 5.02 µM, the GI50 [18] was 2.42 µM and the TGI [18] was 6.64 µM. The GI50 [19] was 1.74 µM, the TGI [19] was 3.15 µM and the GI50 [20] was 13.6 µM. For the same molecule, the TGI [20] was 26.8 µM, the GI50 [21] was 2.2 µM and the TGI [21] was 22.8 µM. For the same molecule, the GI50 [22] was 1.57 µM, the TGI [22] was 3.21 µM and the GI50 [23] was 15.2 µM. For the same molecule, the TGI [23] was 29.4 µM, the GI50 [24] was 1.02 µM and the TGI [24] was 2.22 µM. The GI50 [25] was 2.25 µM, the TGI [25] was 6.58 µM and the GI50 [26] was > 100 µM. For the same molecule, the TGI [26] was > 100 µM, the GI50 [27] was 11.1 µM and the TGI [27] was 71.7 µM. It also gave a GI50 [28] of 2.04 µM, a TGI [28] of 4.68 µM and a GI50 [29] of 14.3 µM. The TGI [29] was 29.1 µM, the GI50 [30] was > 100 µM and the TGI [30] was > 100 µM. It also gave a GI50 [31] of 2.2 µM, a TGI [31] of 6.18 µM and a GI50 [32] of 12.7 µM. The TGI [32] was 26.5 µM, the GI50 [33] was 9.43 µM and the TGI [33] was 26.1 µM. For the same molecule, the GI50 [34] was 75.6 µM, the TGI [34] was > 100 µM and the GI50 [35] was 1.77 µM. The TGI [35] was 3.37 µM, the GI50 [36] was 1.67 µM and the TGI [36] was 3.42 µM. It also gave a GI50 [37] of 1.74 µM, a TGI [37] of 3.21 µM and a GI50 [38] of 10.6 µM. The TGI [38] was 23.3 µM, the GI50 [39] was 13.2 µM and the TGI [39] was 26.5 µM. It also gave a GI50 [40] of 1.79 µM, a TGI [40] of 3.62 µM and a GI50 [41] of 1.64 µM. For the same molecule, the TGI [41] was 3.11 µM, the GI50 [42] was 1.5 µM and the TGI [42] was 2.82 µM. For the same molecule, the GI50 [43] was 11.5 µM, the TGI [43] was 26.4 µM and the GI50 [44] was 1.91 µM. For the same molecule, the TGI [44] was 4.57 µM, the GI50 [45] was 1.57 µM and the TGI [45] was 3.1 µM. The GI50 [46] was 13.9 µM, the TGI [46] was 30.5 µM and the GI50 [47] was 12.7 µM. It also gave a TGI [47] of 25.9 µM, a GI50 [48] of 2.28 µM and a TGI [48] of 7.36 µM. It also gave a GI50 [49] of 1.66 µM, a TGI [49] of 3.1 µM and a GI50 [50] of 1.9 µM. It also gave a TGI [50] of 3.77 µM, a GI50 [51] of 1.19 µM and a TGI [51] of 2.49 µM. The GI50 [52] was 1.87 µM, the TGI [52] was 3.97 µM and the GI50 [53] was 13.7 µM. For the same molecule, the TGI [53] was 26.6 µM, the GI50 [54] was 16.1 µM and the TGI [54] was 31.2 µM. For the same molecule, the GI50 [55] was 14.6 µM and the TGI [55] was 27.8 µM.

Cn1cc(-c2nnc(N)nc2-c2c[nH]c3ccc(F)cc23)c2cc(Br)ccc21 was tested, and the GI50 [1] was 0.668 µM, the TGI [1] was 12.5 µM and the GI50 [2] was 0.458 µM. The TGI [2] was 10.8 µM, the GI50 [3] was 0.792 µM and the TGI [3] was 5.08 µM. The GI50 [4] was 2.25 µM, the TGI [4] was 22.9 µM and the GI50 [5] was 2.99 µM. It also gave a TGI [5] of 12.5 µM, a GI50 [6] of 1.54 µM and a TGI [6] of 4.84 µM. It also gave a GI50 [7] of 0.65 µM, a TGI [7] of 12.6 µM and a GI50 [8] of 2.91 µM. It also gave a TGI [8] of 13.1 µM, a GI50 [56] of 2.29 µM and a TGI [56] of 43.4 µM. For the same molecule, the GI50 [9] was 0.591 µM, the TGI [9] was 13.1 µM and the GI50 [10] was 2.98 µM. The TGI [10] was 20.7 µM, the GI50 [11] was 1.08 µM and the TGI [11] was 11.1 µM. It also gave a GI50 [12] of 5.18 µM, a TGI [12] of 38.9 µM and a GI50 [13] of 2.06 µM. The TGI [13] was 10.5 µM, the GI50 [14] was 0.7 µM and the TGI [14] was 11.2 µM. It also gave a GI50 [15] of 1.32 µM, a TGI [15] of 16.6 µM and a GI50 [16] of 2.04 µM. The TGI [16] was 8.17 µM, the GI50 [57] was 2.29 µM and the TGI [57] was > 100 µM. It also gave a GI50 [17] of 2.11 µM, a TGI [17] of 46.7 µM and a GI50 [18] of 0.671 µM. For the same molecule, the TGI [18] was > 100 µM, the GI50 [19] was 2.98 µM and the TGI [19] was 17.6 µM. For the same molecule, the GI50 [20] was 2.67 µM, the TGI [20] was 17.6 µM and the GI50 [21] was 1.7 µM. The TGI [21] was 13.1 µM, the GI50 [22] was 0.658 µM and the TGI [22] was 14.2 µM. For the same molecule, the GI50 [23] was 3.12 µM, the TGI [23] was 17.4 µM and the GI50 [24] was 1.76 µM. It also gave a TGI [24] of 13.9 µM, a GI50 [25] of 2.3 µM and a TGI [25] of 16.7 µM. The GI50 [26] was 0.875 µM, the TGI [26] was 14.6 µM and the GI50 [27] was 0.991 µM. For the same molecule, the TGI [27] was 20.6 µM, the GI50 [28] was 3.15 µM and the TGI [28] was 16.7 µM. It also gave a GI50 [29] of 2.53 µM, a TGI [29] of 15.1 µM and a GI50 [30] of 1.91 µM. The TGI [30] was 19.9 µM, the GI50 [31] was 1.38 µM and the TGI [31] was > 100 µM. For the same molecule, the GI50 [32] was 0.881 µM, the TGI [32] was 12.7 µM and the GI50 [58] was 2.08 µM. For the same molecule, the TGI [58] was 10.4 µM, the GI50 [33] was 3.06 µM and the TGI [33] was 24.4 µM. The GI50 [34] was 0.64 µM, the TGI [34] was 3.94 µM and the GI50 [35] was 1.15 µM. The TGI [35] was 2.71 µM, the GI50 [36] was 1.38 µM and the TGI [36] was 3.88 µM. The GI50 [37] was 1.88 µM, the TGI [37] was 8.7 µM and the GI50 [38] was 3.02 µM. The TGI [38] was 15.8 µM, the GI50 [40] was 0.611 µM and the TGI [40] was 10.8 µM. It also gave a GI50 [41] of 1.3 µM, a TGI [41] of 12.3 µM and a GI50 [42] of 2.8 µM. For the same molecule, the TGI [42] was 13.6 µM, the GI50 [43] was 1.64 µM and the TGI [43] was 14.6 µM. For the same molecule, the GI50 [44] was 0.707 µM, the TGI [44] was > 100 µM and the GI50 [45] was 3.79 µM. The TGI [45] was 22.4 µM, the GI50 [46] was 2.73 µM and the TGI [46] was 20.1 µM. For the same molecule, the GI50 [47] was 0.933 µM, the TGI [47] was 8.28 µM and the GI50 [48] was 0.453 µM. The TGI [48] was > 100 µM, the GI50 [49] was 2.43 µM and the TGI [49] was 14.3 µM. The GI50 [50] was 0.28 µM, the TGI [50] was 0.829 µM and the GI50 [51] was 1.19 µM. For the same molecule, the TGI [51] was 14 µM, the GI50 [52] was 4.71 µM and the TGI [52] was 19.3 µM. It also gave a GI50 [53] of 2.91 µM, a TGI [53] of 26.9 µM and a GI50 [54] of 2.56 µM. The TGI [54] was 14.8 µM, the GI50 [55] was 1.15 µM and the TGI [55] was 9.57 µM.
